Values quoted from earlier work, collected in patent publication US8569271B2 (Laboratorios del Dr. Esteve, S.A., priority 2009, dated 2013).

solubility in water: only slightly soluble in water
Compound: Cc1ccc(-c2cc(C(F)(F)F)nn2-c2ccc(S(N)(=O)=O)cc2)cc1 [celecoxib, 4-[5-(4-methylphenyl)-3-(trifluoromethyl)-pyrazol-1-yl]-benzenesulfonamide]
